Experimental data published in patent US20170027917A1, “PHARMACEUTICAL COMPOSITIONS COMPRISING ANTIBACTERIAL AGENTS” (priority 2014, published 2017).
Like-named read-outs stand apart in the source and are kept apart here.

Experiments:
Assay in all cases: MIC determination in Muller Hinton Agar (CLSI agar dilution)
Type in all cases: cell-based
[1] = test system: K. pneumoniae ATCC 700603; details: Klebsiella pneumoniae, ATCC700603
Procedure: (§1) The antibacterial activity of combinations according to the invention against resistant bacterial strains was investigated. Minimum Inhibitory Concentration (MIC) determination for the combinations according to invention was carried out in Muller Hinton Agar (MHA) (BD, USA) according to Clinical and Laboratory Standards Institute (CLSI) recommendations, (Clinical and Laboratory Standards Institute (CLSI), Performance Standards for Antimicrobial Susceptibility Testing, 20th Informational Supplement, M 100-S20, Volume 30, No. 1, 2010). In short, the test strains were adjusted to deliver about 10^4 CFU per spot with a multipoint inoculator (Applied Quality Services, UK). The plates were pored with MHA containing doubling concentration range of the test combinations according to invention. The plates were inoculated and were incubated at 35° C. for 18 hours.

[2] = test system: E. coli S206; details: Escherichia coli
Procedure: as §1

[3] = test system: K. pneumoniae J125; details: Klebsiella pneumoniae
Procedure: as §1

[4] = test system: K. pneumoniae J102; details: Klebsiella pneumoniae
Procedure: as §1

[5] = test system: P. aeruginosa 2779; details: Pseudomonas aeruginosa
Procedure: as §1

[6] = test system: E. cloacae J137; details: Enterobacter cloacae
Procedure: as §1

[7] = test system: E. coli NCTC 13352; details: Escherichia coli, NCTC13352
Procedure: as §1

[8] = test system: P. aeruginosa 1405; details: Pseudomonas aeruginosa; P. aeruginosa 1405, Derepressed AmpC; agent alone
Procedure: as §1

[9] = test system: K. pneumoniae H521; details: Klebsiella pneumoniae
Procedure: as §1

[10] = test system: E. coli M50; details: Escherichia coli
Procedure: as §1

[11] = test system: Citrobacter sp S123A
Procedure: as §1

## C[C@@H](O)[C@H]1C(=O)N2C(C(=O)O)=C(SCCN=CN)C[C@H]12 [Imipenem]
[1]; K. pneumoniae ATCC 700603, SHV-18, agent alone, read-out: MIC
  MIC: 0.5 µg/mL
[2]; E. coli S206, Class C, agent alone, read-out: MIC
  MIC: 0.25 µg/mL
[3]; K. pneumoniae J125, KPC3, SHV, TEM, agent alone, read-out: MIC
  MIC: 8 µg/mL
[4]; K. pneumoniae J102, OMP, SHV, TEM, agent alone, read-out: MIC
  MIC: 4 µg/mL
[5]; P. aeruginosa 2779, AmpC, agent alone, read-out: MIC
  MIC: 2 µg/mL
[6]; E. cloacae J137, P99, agent alone, read-out: MIC
  MIC: 1 µg/mL
[7]; E. coli NCTC 13352, TEM-10, agent alone, read-out: MIC
  MIC: 0.25 µg/mL
[8]
  MIC: 16 µg/mL
[9]; K. pneumoniae H521, KPC, SHV, TEM, agent alone, read-out: MIC
  MIC: 32 µg/mL
[10]; E. coli M50, CMY-2, agent alone, read-out: MIC
  MIC: 0.5 µg/mL
[11]
  MIC: 4 µg/mL

## Cn1c(N)c(NC(=O)NCCN)c[n+]1CC1=C(C(=O)O)N2C(=O)[C@@H](NC(=O)/C(=N\OC(C)(C)C(=O)[O-])c3nsc(N)n3)[C@H]2SC1 [Ceftolozane]
[1]
  MIC: 4 µg/mL
[2]; S206
  MIC: > 32 µg/mL
[3]; J125
  MIC: 32 µg/mL
[4]; J102
  MIC: > 32 µg/mL
[5]; 2779
  MIC: 4 µg/mL
[6]; J137
  MIC: > 32 µg/mL
[7]
  MIC: > 32 µg/mL
[8]
  MIC: 8 µg/mL
[9]; H521
  MIC: > 32 µg/mL
[10]; M50
  MIC: > 32 µg/mL
[11]
  MIC: > 32 µg/mL
